Experimental data published in ChEMBL document CHEMBL4477227, “Synthesis and antibacterial evaluation of macrocyclic diarylheptanoid derivatives” (Bioorg Med Chem Lett, 2016).
≈ marks a conversion by molar mass, not a printed value.

Legend:
[1] = test system: Mycobacterium tuberculosis; test: Antitubercular activity against Mycobacterium tuberculosis H37Rv by microbroth dilution method; format: functional; details: Mycobacterium tuberculosis, H37Rv; read-out: MIC
Bacillus anthracis = test: Antibacterial activity against Bacillus anthracis Sterne 34F2 by microbroth dilution method; format: functional; details: Bacillus anthracis, Sterne 34F2; read-out: MIC
Enterococcus faecalis = test: Antibacterial activity against Enterococcus faecalis ATCC 33186 by microbroth dilution method; format: functional; details: Enterococcus faecalis, ATCC 33186; read-out: MIC
Staphylococcus aureus [2] = test: Antibacterial activity against methicillin-sensitive Staphylococcus aureus ATCC 29213 by microbroth dilution method; format: functional; details: Staphylococcus aureus, ATCC 29213; read-out: MIC
Staphylococcus aureus [3] = test: Antibacterial activity against methicillin-resistant Staphylococcus aureus NRS70 by microbroth dilution method; format: functional; details: Staphylococcus aureus, NRS70; read-out: MIC
Streptococcus pyogenes = test: Antibacterial activity against Streptococcus pyogenes ATCC 700294 by microbroth dilution method; format: functional; details: Streptococcus pyogenes, ATCC 700294; read-out: MIC
Streptococcus pneumoniae = test: Antibacterial activity against Streptococcus pneumoniae R6 by microbroth dilution method; format: functional; details: Streptococcus pneumoniae, R6; read-out: MIC
Bacillus subtilis = test: Antibacterial activity against Bacillus subtilis ATCC 23857 by microbroth dilution method; format: functional; details: Bacillus subtilis, ATCC 23857; read-out: MIC
Acinetobacter baumannii = test: Antibacterial activity against Acinetobacter baumannii ATCC 19606 by microbroth dilution method; format: functional, ATCC 19606 = CIP 70.34 = JCM 6841; details: Acinetobacter baumannii, ATCC 19606 = CIP 70.34 = JCM 6841; read-out: MIC
Escherichia coli [4] = test: Antibacterial activity against Escherichia coli K-12 by microbroth dilution method; format: functional
Escherichia coli [5] = test: Antibacterial activity against Escherichia coli harboring TolC deletion mutant by microbroth dilution method; format: functional; details: Escherichia coli; read-out: MIC
Burkholderia cepacia = test: Antibacterial activity against Burkholderia cepacia ATCC 25416 by microbroth dilution method; format: functional
Klebsiella pneumoniae = test: Antibacterial activity against Klebsiella pneumoniae ATCC 33495 by microbroth dilution method; format: functional
Proteus mirabilis = test: Antibacterial activity against Proteus mirabilis ATCC 25933 by microbroth dilution method; format: functional
Proteus vulgaris = test: Antibacterial activity against Proteus vulgaris ATCC 33420 by microbroth dilution method; format: functional
Pseudomonas aeruginosa = test: Antibacterial activity against Pseudomonas aeruginosa PAO1 by microbroth dilution method; format: functional

Row | SMILES | MIC [1] [µg/mL] | MIC (Bacillus anthracis) [µg/mL] | MIC (Enterococcus faecalis) [µg/mL] | MIC (Staphylococcus aureus [2]) [µg/mL] | MIC (Staphylococcus aureus [3]) [µg/mL] | MIC (Streptococcus pyogenes) [µg/mL] | MIC (Streptococcus pneumoniae) [µg/mL] | MIC (Bacillus subtilis) [µg/mL] | MIC (Acinetobacter baumannii) [µg/mL] | MIC (Escherichia coli [4]) [µg/mL] | MIC (Escherichia coli [5]) [µg/mL] | MIC (Burkholderia cepacia) [µg/mL] | MIC (Klebsiella pneumoniae) [µg/mL] | MIC (Proteus mirabilis) [µg/mL] | MIC (Proteus vulgaris) [µg/mL] | MIC (Pseudomonas aeruginosa) [µg/mL]
1 | COc1ccc2cc1Oc1cc(ccc1OC)CCC(OS(=O)(=O)c1ccc(C)cc1)CCCC2 (centres undefined) | > 100 | > 100 | 100 (≈ 201 µM) | > 100 | 100 (≈ 201 µM) | > 100 | > 100 | > 100 | > 100 | > 100 | > 100 | > 100 | > 100 | > 100 | > 100 | > 100
2 | Oc1ccc2cc1Oc1cc(ccc1O)CCC(NCc1ccccc1)CCCC2 (centres undefined) | 100 (≈ 248 µM) | > 50 | > 50 | > 50 | > 50 | > 50 | > 50 | > 50 | > 50 | > 50 | 50 (≈ 124 µM) | > 100 | > 100 | > 100 | > 100 | > 100
3 | COc1ccc2cc1Oc1cc(ccc1OC)CCC(OC(=O)NCc1ccccc1)CCCC2 (centres undefined) | > 100 | > 100 | > 100 | > 100 | > 100 | > 100 | > 100 | > 100 | > 100 | > 100 | > 100 | > 100 | > 100 | > 100 | > 100 | > 100
4 | COc1ccc2cc1Oc1cc(ccc1OC)CCC(OS(=O)(=O)c1ccc(OC(F)(F)F)cc1)CCCC2 (centres undefined) | > 100 | 100 (≈ 176 µM) | 50 (≈ 88.2 µM) | > 100 | 50 (≈ 88.2 µM) | > 100 | > 100 | > 100 | > 100 | > 100 | > 100 | > 100 | > 100 | > 100 | > 100 | > 100
5 | COc1ccc2cc1Oc1cc(ccc1OC)CCC(OC(=O)CCc1ccccc1)CCCC2 (centres undefined) | > 100 | > 100 | > 100 | > 100 | > 100 | > 100 | > 100 | > 100 | > 100 | > 100 | > 100 | > 100 | > 100 | > 100 | > 100 | > 100
6 | COc1cc2ccc1Oc1cc(ccc1OC)CCCCC(NCCc1ccc(F)cc1)CC2 (centres undefined) | 25 (≈ 53.9 µM) | 50 (≈ 108 µM) | 25 (≈ 53.9 µM) | 25 (≈ 53.9 µM) | 25 (≈ 53.9 µM) | 50 (≈ 108 µM) | 25 (≈ 53.9 µM) | 12.5 (≈ 27 µM) | 100 (≈ 216 µM) | > 100 | 25 (≈ 53.9 µM) | > 100 | > 100 | > 100 | > 100 | > 100
7 | COc1ccc2cc1Oc1cc(ccc1OC)CCC(OC(=O)Cc1ccccc1)CCCC2 (centres undefined) | > 100 | > 100 | > 100 | > 100 | > 100 | > 100 | > 100 | > 100 | > 100 | > 100 | > 100 | > 100 | > 100 | > 100 | > 100 | > 100
8 | COc1ccc2cc1Oc1cc(ccc1OC)CCC(OC(=O)Nc1ccc(F)cc1)CCCC2 (centres undefined) | > 100 | > 100 | 50 (≈ 104 µM) | > 100 | 25 (≈ 52.1 µM) | > 100 | > 100 | > 100 | > 100 | > 100 | > 100 | > 100 | > 100 | > 100 | > 100 | > 100
9 | COc1ccc2cc1Oc1cc(ccc1OC)CCC(NCCN(C)C)CCCC2 (centres undefined) | 100 (≈ 242 µM) | > 100 | > 100 | > 100 | > 100 | > 100 | > 100 | 100 (≈ 242 µM) | > 100 | > 100 | > 100 | > 100 | > 100 | > 100 | > 100 | > 100
